Reference: ChEMBL document CHEMBL3045679, “Microwave-assisted synthesis and pharmacological studies of novel 5-deazaalloxazine derivatives” (2012)
In brackets after ≈: the same amount, converted by molar mass. Activity calls are given as the source filed them. The rule behind the calls is not given here.

Columns and labels:
Lipomyces lipofer [1] = assay: Antifungal activity against Lipomyces lipofer NCIM 3252 at 1000 ug/disk after 72 hr by disk diffusion method; assay type: functional; conditions: NCIM 3252, 72 h, read-out: DIZ
Lipomyces lipofer [2] = assay: Antifungal activity against Lipomyces lipofer NCIM 3252 at 500 ug/disk after 72 hr by disk diffusion method; assay type: functional
Candida albicans [3] = assay: Antifungal activity against Candida albicans NCIM 3471 at 1000 ug/disk after 72 hr by disk diffusion method; assay type: functional; conditions: NCIM 3471, 72 h, read-out: DIZ
Candida albicans [4] = assay: Antifungal activity against Candida albicans NCIM 3471 at 500 ug/disk after 72 hr by disk diffusion method; assay type: functional
Rhodotorula mucilaginosa [5] = assay: Antifungal activity against Rhodotorula mucilaginosa NCIM 3174 at 1000 ug/disk after 72 hr by disk diffusion method; assay type: functional; conditions: NCIM 3174, 72 h, read-out: DIZ
Rhodotorula mucilaginosa [6] = assay: Antifungal activity against Rhodotorula mucilaginosa NCIM 3174 at 500 ug/disk after 72 hr by disk diffusion method; assay type: functional
Aspergillus flavus [7] = assay: Antifungal activity against Aspergillus flavus NCIM 535 at 1000 ug/disk after 72 hr by disk diffusion method; assay type: functional; conditions: NCIM 535, 72 h, read-out: DIZ
Aspergillus flavus [8] = assay: Antifungal activity against Aspergillus flavus NCIM 535 at 500 ug/disk after 72 hr by disk diffusion method; assay type: functional; conditions: NCIM 535, 72 h, read-out: DIZ
Aspergillus niger [9] = assay: Antifungal activity against Aspergillus niger NCIM 1196 at 1000 ug/disk after 72 hr by disk diffusion method; assay type: functional
Aspergillus niger [10] = assay: Antifungal activity against Aspergillus niger NCIM 1196 at 500 ug/disk after 72 hr by disk diffusion method; assay type: functional
Penicillium chrysogenum [11] = assay: Antifungal activity against Penicillium chrysogenum NCIM 707 at 1000 ug/disk after 72 hr by disk diffusion method; assay type: functional; conditions: NCIM 707, 72 h, read-out: DIZ
Penicillium chrysogenum [12] = assay: Antifungal activity against Penicillium chrysogenum NCIM 707 at 500 ug/disk after 72 hr by disk diffusion method; assay type: functional
Streptomyces albus [13] = assay: Antibacterial activity against Streptomyces albus NCIM 2178 at 1000 ug/disk after 24 hr by disk diffusion method; assay type: functional; conditions: NCIM 2178, 24 h, read-out: DIZ
Streptomyces albus [14] = assay: Antibacterial activity against Streptomyces albus NCIM 2178 at 500 ug/disk after 24 hr by disk diffusion method; assay type: functional, organism-based
Bacillus cereus [15] = assay: Antibacterial activity against Bacillus cereus NCIM 2155 at 1000 ug/disk after 24 hr by disk diffusion method; assay type: functional; conditions: NCIM 2155, 24 h, read-out: DIZ
Bacillus cereus [16] = assay: Antibacterial activity against Bacillus cereus NCIM 2155 at 500 ug/disk after 24 hr by disk diffusion method; assay type: functional; conditions: NCIM 2155, 24 h, read-out: DIZ
Bacillus subtilis [17] = assay: Antibacterial activity against Bacillus subtilis NCIM 2063 at 1000 ug/disk after 24 hr by disk diffusion method; assay type: functional; conditions: NCIM 2063, 24 h, read-out: DIZ
Bacillus subtilis [18] = assay: Antibacterial activity against Bacillus subtilis NCIM 2063 at 500 ug/disk after 24 hr by disk diffusion method; assay type: functional
Klebsiella aerogenes [19] = assay: Antibacterial activity against Enterobacter aerogenes NCIM 2239 at 1000 ug/disk after 24 hr by disk diffusion method; assay type: functional; conditions: NCIM 2239, 24 h, read-out: DIZ
Klebsiella aerogenes [20] = assay: Antibacterial activity against Enterobacter aerogenes NCIM 2239 at 500 ug/disk after 24 hr by disk diffusion method; assay type: functional
Pseudomonas aeruginosa [21] = assay: Antibacterial activity against Pseudomonas aeruginosa NCIM 2200 at 1000 ug/disk after 24 hr by disk diffusion method; assay type: functional; conditions: NCIM 2200, 24 h, read-out: DIZ
Pseudomonas aeruginosa [22] = assay: Antibacterial activity against Pseudomonas aeruginosa NCIM 2200 at 500 ug/disk after 24 hr by disk diffusion method; assay type: functional
Escherichia coli [23] = assay: Antibacterial activity against Escherichia coli NCIM 2065 at 1000 ug/disk after 24 hr by disk diffusion method; assay type: functional; conditions: NCIM 2065, 24 h, read-out: DIZ
Escherichia coli [24] = assay: Antibacterial activity against Escherichia coli NCIM 2065 at 500 ug/disk after 24 hr by disk diffusion method; assay type: functional; conditions: NCIM 2065, 24 h, read-out: DIZ
Bacillus subtilis [25] = assay: Antibacterial activity against Bacillus subtilis NCIM 2063 after 24 hr by broth dilution assay; assay type: functional; conditions: NCIM 2063, 24 h
Klebsiella aerogenes [26] = assay: Antibacterial activity against Enterobacter aerogenes NCIM 2239 after 24 hr by broth dilution assay; assay type: functional; conditions: NCIM 2239, 24 h
Pseudomonas aeruginosa [27] = assay: Antibacterial activity against Pseudomonas aeruginosa NCIM 2200 after 24 hr by broth dilution assay; assay type: functional; conditions: NCIM 2200, 24 h
Escherichia coli [28] = assay: Antibacterial activity against Escherichia coli NCIM 2065 after 24 hr by broth dilution assay; assay type: functional; conditions: NCIM 2065, 24 h
Lipomyces lipofer [29] = assay: Antifungal activity against Lipomyces lipofer NCIM 3252 after 72 hr by broth dilution assay; assay type: functional; conditions: NCIM 3252, 72 h
Candida albicans [30] = assay: Antifungal activity against Candida albicans NCIM 3471 after 72 hr by broth dilution assay; assay type: functional; conditions: NCIM 3471, 72 h
Rhodotorula mucilaginosa [31] = assay: Antifungal activity against Rhodotorula mucilaginosa NCIM 3174 after 72 hr by broth dilution assay; assay type: functional; conditions: NCIM 3174, 72 h
Aspergillus flavus [32] = assay: Antifungal activity against Aspergillus flavus NCIM 535 after 72 hr by broth dilution assay; assay type: functional; conditions: NCIM 535, 72 h
Aspergillus niger [33] = assay: Antifungal activity against Aspergillus niger NCIM 1196 after 72 hr by broth dilution assay; assay type: functional; conditions: NCIM 1196, 72 h
Penicillium chrysogenum [34] = assay: Antifungal activity against Penicillium chrysogenum NCIM 707 after 72 hr by broth dilution assay; assay type: functional; conditions: NCIM 707, 72 h
Streptomyces albus [35] = assay: Antibacterial activity against Streptomyces albus NCIM 2178 after 24 hr by broth dilution assay; assay type: functional; conditions: NCIM 2178, 24 h
Bacillus cereus [36] = assay: Antibacterial activity against Bacillus cereus NCIM 2155 after 24 hr by broth dilution assay; assay type: functional; conditions: NCIM 2155, 24 h
Streptomyces albus [37] = assay: Antibacterial activity against Streptomyces albus NCIM 2178 at 5 ug/disk after 24 hr by disk diffusion method; assay type: functional; conditions: NCIM 2178, 24 h, read-out: DIZ
Bacillus cereus [38] = assay: Antibacterial activity against Bacillus cereus NCIM 2155 at 5 ug/disk after 24 hr by disk diffusion method; assay type: functional; conditions: NCIM 2155, 24 h, read-out: DIZ
Bacillus subtilis [39] = assay: Antibacterial activity against Bacillus subtilis NCIM 2063 at 5 ug/disk after 24 hr by disk diffusion method; assay type: functional; conditions: NCIM 2063, 24 h, read-out: DIZ
Klebsiella aerogenes [40] = assay: Antibacterial activity against Enterobacter aerogenes NCIM 2239 at 5 ug/disk after 24 hr by disk diffusion method; assay type: functional; conditions: NCIM 2239, 24 h, read-out: DIZ
Pseudomonas aeruginosa [41] = assay: Antibacterial activity against Pseudomonas aeruginosa NCIM 2200 at 5 ug/disk after 24 hr by disk diffusion method; assay type: functional; conditions: NCIM 2200, 24 h, read-out: DIZ
Escherichia coli [42] = assay: Antibacterial activity against Escherichia coli NCIM 2065 at 5 ug/disk after 24 hr by disk diffusion method; assay type: functional; conditions: NCIM 2065, 24 h, read-out: DIZ

| SMILES | zone of inhibition at 1000 µg/disc (Lipomyces lipofer [1]) [mm] | zone of inhibition at 1000 µg/disc (Candida albicans [3]) [mm] | zone of inhibition at 1000 µg/disc (Rhodotorula mucilaginosa [5]) [mm] | zone of inhibition at 1000 µg/disc (Aspergillus flavus [7]) [mm] | zone of inhibition at 500 µg/disc (Aspergillus flavus [8]) [mm] | diameter of the inhibition zone (DIZ) (Aspergillus niger [10]) | zone of inhibition at 1000 µg/disc (Penicillium chrysogenum [11]) [mm] | zone of inhibition at 1000 µg/disc (Streptomyces albus [13]) [mm] | diameter of the inhibition zone (DIZ) (Streptomyces albus [14]) | zone of inhibition at 1000 µg/disc (Bacillus cereus [15]) [mm] | zone of inhibition at 500 µg/disc (Bacillus cereus [16]) [mm] | zone of inhibition at 1000 µg/disc (Bacillus subtilis [17]) [mm] | zone of inhibition at 1000 µg/disc (Klebsiella aerogenes [19]) [mm] | zone of inhibition at 1000 µg/disc (Pseudomonas aeruginosa [21]) [mm] | zone of inhibition at 1000 µg/disc (Escherichia coli [23]) [mm] | zone of inhibition at 500 µg/disc (Escherichia coli [24]) [mm] | MIC (Bacillus subtilis [25]) [µg/mL] | MIC (Klebsiella aerogenes [26]) [µg/mL] | MIC (Pseudomonas aeruginosa [27]) [µg/mL] | MIC (Escherichia coli [28]) [µg/mL] | also measured |
| --- | --- | --- | --- | --- | --- | --- | --- | --- | --- | --- | --- | --- | --- | --- | --- | --- | --- | --- | --- | --- | --- |
| O=c1[nH]c(=O)c2cc3ccccc3nc2[nH]1 | 11 | 12 | 11 | 14 | 11 | inactive | 13 | 13 | inactive | 13 | 9 | 11 | 11 | 14 | 13 | 11 | 15.6 (≈ 73.2 µM) | 31.2 (≈ 146 µM) | 31.2 (≈ 146 µM) | 3.9 (≈ 18.3 µM) | zone of inhibition at 500 µg/disc (Lipomyces lipofer [2]; NCIM 3252, 72 h, read-out: DIZ): 9 mm; zone of inhibition at 500 µg/disc (Candida albicans [4]; NCIM 3471, 72 h, read-out: DIZ): 9 mm; zone of inhibition at 500 µg/disc (Rhodotorula mucilaginosa [6]; NCIM 3174, 72 h, read-out: DIZ): 10 mm; zone of inhibition at 1000 µg/disc (Aspergillus niger [9]; NCIM 1196, 72 h, read-out: DIZ): 10 mm; zone of inhibition at 500 µg/disc (Penicillium chrysogenum [12]; NCIM 707, 72 h, read-out: DIZ): 8 mm; zone of inhibition at 500 µg/disc (Bacillus subtilis [18]; NCIM 2063, 24 h, read-out: DIZ): 8 mm; zone of inhibition at 500 µg/disc (Klebsiella aerogenes [20]; NCIM 2239, 24 h, read-out: DIZ): 8 mm; zone of inhibition at 500 µg/disc (Pseudomonas aeruginosa [22]; NCIM 2200, 24 h, read-out: DIZ): 10 mm; MIC (Lipomyces lipofer [29]): 62.5 µg/mL (≈ 293 µM); MIC (Candida albicans [30]): 15.6 µg/mL (≈ 73.2 µM); MIC (Rhodotorula mucilaginosa [31]): 7.8 µg/mL (≈ 36.6 µM); MIC (Aspergillus flavus [32]): 3.9 µg/mL (≈ 18.3 µM); MIC (Aspergillus niger [33]): 125 µg/mL (≈ 586 µM); MIC (Penicillium chrysogenum [34]): 7.8 µg/mL (≈ 36.6 µM); MIC (Streptomyces albus [35]): 31.2 µg/mL (≈ 146 µM); MIC (Bacillus cereus [36]): 31.2 µg/mL (≈ 146 µM) |
| CC1COc2c(N3CCN(C)CC3)c(F)cc3c(=O)c(C(=O)O)cn1c23 (stereo not drawn) [OFLOXACIN] |  |  |  |  |  |  |  |  |  |  |  |  |  |  |  |  |  |  |  |  | zone of inhibition at 5 µg/disc (Streptomyces albus [37]): 21 mm; zone of inhibition at 5 µg/disc (Bacillus cereus [38]): 19 mm; zone of inhibition at 5 µg/disc (Bacillus subtilis [39]): 22 mm; zone of inhibition at 5 µg/disc (Klebsiella aerogenes [40]): 21 mm; zone of inhibition at 5 µg/disc (Pseudomonas aeruginosa [41]): 22 mm; zone of inhibition at 5 µg/disc (Escherichia coli [42]): 23 mm |
| Cc1cccc2cc3c(=O)[nH]c(=O)[nH]c3nc12 | 13 | 11 | 13 | 13 | 9 | inactive | 9 | 10 | inactive | 12 | 11 | 10 | 13 | 11 | 15 | 14 | 31.2 (≈ 137 µM) | 15.6 (≈ 68.7 µM) | 7.8 (≈ 34.3 µM) | 3.9 (≈ 17.2 µM) | diameter of the inhibition zone (DIZ) (Lipomyces lipofer [2]): inactive; diameter of the inhibition zone (DIZ) (Candida albicans [4]): inactive; diameter of the inhibition zone (DIZ) (Rhodotorula mucilaginosa [6]): inactive; diameter of the inhibition zone (DIZ) (Aspergillus niger [9]): inactive; diameter of the inhibition zone (DIZ) (Penicillium chrysogenum [12]): inactive; diameter of the inhibition zone (DIZ) (Bacillus subtilis [18]): inactive; diameter of the inhibition zone (DIZ) (Klebsiella aerogenes [20]): inactive; diameter of the inhibition zone (DIZ) (Pseudomonas aeruginosa [22]): inactive; MIC (Lipomyces lipofer [29]): 31.2 µg/mL (≈ 137 µM); MIC (Candida albicans [30]): 31.2 µg/mL (≈ 137 µM); MIC (Rhodotorula mucilaginosa [31]): 15.6 µg/mL (≈ 68.7 µM); MIC (Aspergillus flavus [32]): 7.8 µg/mL (≈ 34.3 µM); MIC (Aspergillus niger [33]): 125 µg/mL (≈ 550 µM); MIC (Penicillium chrysogenum [34]): 62.5 µg/mL (≈ 275 µM); MIC (Streptomyces albus [35]): 62.5 µg/mL (≈ 275 µM); MIC (Bacillus cereus [36]): 15.6 µg/mL (≈ 68.7 µM) |
